From PubChem BioAssay AID1919015 (Molecular Pharmacology Branch, DTP, NCI, 2023)

Test system: OVCAR-5 complex spheroids with HUVEC/MSC, viability, % test/control
Assay: Anticancer human tumor OVCAR-5 cell line growth inhibition [AhR];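 further: spheroids exposed to compounds for 7 days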;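 on viability, T/C: 100% = DMSO vehicle control wells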
Details: for IC50: curve of first compound; for viability, T/C: stronger effect = lower value
Summary of the method: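 Agents were dosed in half-log steps down from roughly clinical Cmax, or from 10 microM where Cmax was unknown, alone and with AhR antagonists. Read-out: percent test/control growth of tumor spheroids containing HUVEC and MSC stromal cells.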

[1] = second compound 0.1 µM, first compound 0.0316 µM
[2] = second compound 0.1 µM, first compound 0.1 µM
[3] = second compound 0.1 µM, first compound 0.316 µM
[4] = second compound 0.1 µM, first compound 1 µM
[5] = second compound 0.316 µM, first compound 0.0316 µM
[6] = second compound 0.316 µM, first compound 0.1 µM
[7] = second compound 0.316 µM, first compound 0.316 µM
[8] = second compound 0.316 µM, first compound 1 µM
[9] = second compound 1 µM, first compound 0.0316 µM
[10] = second compound 1 µM, first compound 0.1 µM
[11] = second compound 1 µM, first compound 0.316 µM
[12] = second compound 1 µM, first compound 1 µM
[13] = second compound 3.16 µM, first compound 0.0316 µM
[14] = second compound 3.16 µM, first compound 0.1 µM
[15] = second compound 3.16 µM, first compound 0.316 µM
[16] = second compound 3.16 µM, first compound 1 µM
[17] = second compound 10 µM, first compound 0.0316 µM
[18] = second compound 10 µM, first compound 0.1 µM
[19] = second compound 10 µM, first compound 0.316 µM
[20] = second compound 10 µM, first compound 1 µM
[21] = second compound 0.1 µM, first compound 3.16 µM
[22] = second compound 0.1 µM, first compound 10 µM
[23] = second compound 0.316 µM, first compound 3.16 µM
[24] = second compound 0.316 µM, first compound 10 µM
[25] = second compound 1 µM, first compound 3.16 µM
[26] = second compound 1 µM, first compound 10 µM
[27] = second compound 3.16 µM, first compound 3.16 µM
[28] = second compound 3.16 µM, first compound 10 µM
[29] = second compound 10 µM, first compound 3.16 µM
[30] = second compound 10 µM, first compound 10 µM
[31] = second compound 0.1 µM, first compound 0.00949 µM
[32] = second compound 0.1 µM, first compound 0.03 µM
[33] = second compound 0.1 µM, first compound 0.0949 µM
[34] = second compound 0.1 µM, first compound 0.3 µM
[35] = second compound 0.316 µM, first compound 0.00949 µM
[36] = second compound 0.316 µM, first compound 0.03 µM
[37] = second compound 0.316 µM, first compound 0.0949 µM
[38] = second compound 0.316 µM, first compound 0.3 µM
[39] = second compound 1 µM, first compound 0.00949 µM
[40] = second compound 1 µM, first compound 0.03 µM
[41] = second compound 1 µM, first compound 0.0949 µM
[42] = second compound 1 µM, first compound 0.3 µM
[43] = second compound 3.16 µM, first compound 0.00949 µM
[44] = second compound 3.16 µM, first compound 0.03 µM
[45] = second compound 3.16 µM, first compound 0.0949 µM
[46] = second compound 3.16 µM, first compound 0.3 µM
[47] = second compound 10 µM, first compound 0.00949 µM
[48] = second compound 10 µM, first compound 0.03 µM
[49] = second compound 10 µM, first compound 0.0949 µM
[50] = second compound 10 µM, first compound 0.3 µM

For `CC1COCCN1c1cc(-c2ccnn2C)c2ccnc(-c3ccn[nH]3)c2n1` (stereo not given) + CC(CO)NC(=O)c1cc(-c2ccc(Cl)cc2)nn(-c2cnn(C)c2)c1=O, the IC50 (second compound 0.1 µM) was 281 nM, the IC50 (second compound 0.316 µM) was 276 nM and the IC50 (second compound 1 µM) was 297 nM. The IC50 (second compound 3.16 µM) was 207 nM, the IC50 (second compound 10 µM) was 95.8 nM and the viability, T/C (second compound 0.1 µM, first compound 0.00316 µM) was 111%. For the same compound, the viability, T/C (second compound 0.1 µM, first compound 0.01 µM) was 111%, the viability, T/C [1] was 110% and the viability, T/C [2] was 87%. It also gave a viability, T/C [3] of 46.2%, a viability, T/C [4] of 30.8% and a viability, T/C (second compound 0.316 µM, first compound 0.00316 µM) of 111%. For the same compound, the viability, T/C (second compound 0.316 µM, first compound 0.01 µM) was 113%, the viability, T/C [5] was 109% and the viability, T/C [6] was 87%. It also gave a viability, T/C [7] of 45.1%, a viability, T/C [8] of 32.1% and a viability, T/C (second compound 1 µM, first compound 0.00316 µM) of 119%. For the same compound, the viability, T/C (second compound 1 µM, first compound 0.01 µM) was 121%, the viability, T/C [9] was 118% and the viability, T/C [10] was 89%. The viability, T/C [11] was 48.6%, the viability, T/C [12] was 35.4% and the viability, T/C (second compound 3.16 µM, first compound 0.00316 µM) was 106%. For the same compound, the viability, T/C (second compound 3.16 µM, first compound 0.01 µM) was 115%, the viability, T/C [13] was 102% and the viability, T/C [14] was 67.6%. The viability, T/C [15] was 40.3%, the viability, T/C [16] was 35% and the viability, T/C (second compound 10 µM, first compound 0.00316 µM) was 99.7%. For the same compound, the viability, T/C (second compound 10 µM, first compound 0.01 µM) was 103%, the viability, T/C [17] was 83.9% and the viability, T/C [18] was 49%. It also gave a viability, T/C [19] of 35.5% and a viability, T/C [20] of 33.5%.

With `CC1COCCN1c1cc(C2(S(C)(=N)=O)CC2)nc(-c2ccnc3[nH]ccc23)n1` (stereo not given) + CC(CO)NC(=O)c1cc(-c2ccc(Cl)cc2)nn(-c2cnn(C)c2)c1=O the IC50 (second compound 0.1 µM) was 9070 nM, the IC50 (second compound 0.316 µM) was 9900 nM and the IC50 (second compound 1 µM) was greater than 10000 nM. For the same compound, the IC50 (second compound 3.16 µM) was 8950 nM, the IC50 (second compound 10 µM) was 6640 nM and the viability, T/C [1] was 106%. It also gave a viability, T/C [2] of 105%, a viability, T/C [3] of 104% and a viability, T/C [4] of 101%. For the same compound, the viability, T/C [21] was 80.9%, the viability, T/C [22] was 47.1% and the viability, T/C [5] was 109%. The viability, T/C [6] was 105%, the viability, T/C [7] was 107% and the viability, T/C [8] was 108%. The viability, T/C [23] was 81.6%, the viability, T/C [24] was 49.7% and the viability, T/C [9] was 116%. For the same compound, the viability, T/C [10] was 112%, the viability, T/C [11] was 112% and the viability, T/C [12] was 109%. It also gave a viability, T/C [25] of 89.9%, a viability, T/C [26] of 53% and a viability, T/C [13] of 108%. For the same compound, the viability, T/C [14] was 101%, the viability, T/C [15] was 100% and the viability, T/C [16] was 93.1%. The viability, T/C [27] was 77.2%, the viability, T/C [28] was 46.7% and the viability, T/C [17] was 96.1%. The viability, T/C [18] was 97.5%, the viability, T/C [19] was 95.4% and the viability, T/C [20] was 83.8%. It also gave a viability, T/C [29] of 61.5% and a viability, T/C [30] of 43.7%.

`COc1ccc([C@@H](O)c2cc(-c3ncnc4cc(N5CCOCC5)ccc34)c(F)cc2Cl)nn1` + CC(CO)NC(=O)c1cc(-c2ccc(Cl)cc2)nn(-c2cnn(C)c2)c1=O showed an IC50 (second compound 0.1 µM) of 2570 nM, an IC50 (second compound 0.316 µM) of 2940 nM and an IC50 (second compound 1 µM) of 3610 nM. The IC50 (second compound 3.16 µM) was 3360 nM, the IC50 (second compound 10 µM) was 2350 nM and the viability, T/C [1] was 101%. It also gave a viability, T/C [2] of 107%, a viability, T/C [3] of 97.6% and a viability, T/C [4] of 75%. For the same compound, the viability, T/C [21] was 45.3%, the viability, T/C [22] was 23.8% and the viability, T/C [5] was 105%. For the same compound, the viability, T/C [6] was 105%, the viability, T/C [7] was 102% and the viability, T/C [8] was 80.4%. For the same compound, the viability, T/C [23] was 48.6%, the viability, T/C [24] was 24.4% and the viability, T/C [9] was 114%. The viability, T/C [10] was 115%, the viability, T/C [11] was 107% and the viability, T/C [12] was 87.4%. For the same compound, the viability, T/C [25] was 52.9%, the viability, T/C [26] was 28.6% and the viability, T/C [13] was 99.2%. The viability, T/C [14] was 102%, the viability, T/C [15] was 87.3% and the viability, T/C [16] was 77.5%. It also gave a viability, T/C [27] of 50.5%, a viability, T/C [28] of 27.7% and a viability, T/C [17] of 98%. For the same compound, the viability, T/C [18] was 96.6%, the viability, T/C [19] was 85.4% and the viability, T/C [20] was 69%. For the same compound, the viability, T/C [29] was 43.3% and the viability, T/C [30] was 26.2%.

With `Nc1ncn(C2CC(O)C(CO)S2)c(=O)n1` (stereo not given) + CC(CO)NC(=O)c1cc(-c2ccc(Cl)cc2)nn(-c2cnn(C)c2)c1=O the IC50 (second compound 0.1 µM) was greater than 300 nM, the IC50 (second compound 0.316 µM) was greater than 300 nM and the IC50 (second compound 1 µM) was greater than 300 nM. The IC50 (second compound 3.16 µM) was greater than 300 nM, the IC50 (second compound 10 µM) was greater than 300 nM and the viability, T/C (second compound 0.1 µM, first compound 0.000949 µM) was 104%. It also gave a viability, T/C (second compound 0.1 µM, first compound 0.003 µM) of 110%, a viability, T/C [31] of 106% and a viability, T/C [32] of 110%. The viability, T/C [33] was 103%, the viability, T/C [34] was 85.3% and the viability, T/C (second compound 0.316 µM, first compound 0.000949 µM) was 103%. It also gave a viability, T/C (second compound 0.316 µM, first compound 0.003 µM) of 109%, a viability, T/C [35] of 109% and a viability, T/C [36] of 105%. For the same compound, the viability, T/C [37] was 101%, the viability, T/C [38] was 84.6% and the viability, T/C (second compound 1 µM, first compound 0.000949 µM) was 109%. For the same compound, the viability, T/C (second compound 1 µM, first compound 0.003 µM) was 112%, the viability, T/C [39] was 113% and the viability, T/C [40] was 109%. For the same compound, the viability, T/C [41] was 106%, the viability, T/C [42] was 91.9% and the viability, T/C (second compound 3.16 µM, first compound 0.000949 µM) was 101%. The viability, T/C (second compound 3.16 µM, first compound 0.003 µM) was 104%, the viability, T/C [43] was 102% and the viability, T/C [44] was 104%. It also gave a viability, T/C [45] of 93.3%, a viability, T/C [46] of 83.5% and a viability, T/C (second compound 10 µM, first compound 0.000949 µM) of 99.7%. The viability, T/C (second compound 10 µM, first compound 0.003 µM) was 101%, the viability, T/C [47] was 98.9% and the viability, T/C [48] was 98.4%. For the same compound, the viability, T/C [49] was 93% and the viability, T/C [50] was 86.2%.

`O=C(C=Cn1cnc(-c2cc(C(F)(F)F)cc(C(F)(F)F)c2)n1)NNc1cnccn1` + CC(CO)NC(=O)c1cc(-c2ccc(Cl)cc2)nn(-c2cnn(C)c2)c1=O gave an IC50 (second compound 0.1 µM) of 1900 nM, an IC50 (second compound 0.316 µM) of 2180 nM and an IC50 (second compound 1 µM) of 2680 nM. The IC50 (second compound 3.16 µM) was 2020 nM, the IC50 (second compound 10 µM) was 1670 nM and the viability, T/C [31] was 109%. For the same compound, the viability, T/C [32] was 113%, the viability, T/C [33] was 101% and the viability, T/C [34] was 86.7%. It also gave a viability, T/C (second compound 0.1 µM, first compound 0.949 µM) of 66.4%, a viability, T/C (second compound 0.1 µM, first compound 3 µM) of 39.6% and a viability, T/C [35] of 110%. The viability, T/C [36] was 110%, the viability, T/C [37] was 104% and the viability, T/C [38] was 86%. The viability, T/C (second compound 0.316 µM, first compound 0.949 µM) was 64%, the viability, T/C (second compound 0.316 µM, first compound 3 µM) was 44.7% and the viability, T/C [39] was 113%. The viability, T/C [40] was 114%, the viability, T/C [41] was 111% and the viability, T/C [42] was 90.1%. It also gave a viability, T/C (second compound 1 µM, first compound 0.949 µM) of 70.2%, a viability, T/C (second compound 1 µM, first compound 3 µM) of 47.5% and a viability, T/C [43] of 101%. The viability, T/C [44] was 112%, the viability, T/C [45] was 103% and the viability, T/C [46] was 87.5%. It also gave a viability, T/C (second compound 3.16 µM, first compound 0.949 µM) of 69.7%, a viability, T/C (second compound 3.16 µM, first compound 3 µM) of 40.1% and a viability, T/C [47] of 97%. The viability, T/C [48] was 98.2%, the viability, T/C [49] was 97.6% and the viability, T/C [50] was 83.3%. The viability, T/C (second compound 10 µM, first compound 0.949 µM) was 65.8% and the viability, T/C (second compound 10 µM, first compound 3 µM) was 34.2%.
